Assay results reported in patent US6423541B1, “Process for in vitro selection of high methol producing genotypes” (Council of Scientific&Industrial Reaearch, priority 2000, dated 2002).

Experiments:
Assay in all cases: Survival of in vitro raised shoots on menthol containing MS basal medium
Type in all cases: cell-based
[1] = system: regenerated shoots of Mentha arvensis variety Himalaya
Description: (§1) The plant varieties analysed were Himalaya, Shivalik, Gomti, MAS-1, Kosi, Kalka of Mentha arvensis L. (2n=96). The suckers of these plant varieties were obtained from CIMAP's national gene bank for medicinal and aromatic plants for planting. The explant materials were collected from the field grown plants and surface sterilized by washing sequentially with 2% detergent, distilled water containing a few drops of Savlon (Johnson and Johnson, India), 0.1% acidified mercuric chloride and autoclaved distilled water before inoculation. About 1 cm long internodal pieces were inoculated in the MS medium (Murasighe and Skoog, 1962) containing vitamins, 100 mg l^−1 myo-inositol 3% wv^−1 sucrose, 1.5% wv^−1 agar (Difco), 0.5 .μg ml^−1 of an auxin, (NAA, 1-napthalene acetic acid) and 5 μg ml^−1 of a cytokinin (BAP, benzyl aminopurine) (Shasany et al, 1998). The cultures were grown at 25±2° C. and 400 to 600 lux light intensity with 16 h photoperiod. The regenerated shoots were separated 12 weeks after the explant inoculation for rooting and/or testing menthol tolerance.
(§2) The regenerated shoots (3-4 cm long, containing the apical bud and 2-3 nodes) separated after 12 weeks, were inoculated into MS basal medium with or without menthol (0 to 100 μg ml^−1). Concentration of menthol in each treatment was stepped up by 10 μg in a sequential manner. On each kind of these media, 5 independently regenerated shoots were inoculated per flask; 4 flasks were inoculated per replication and each treatment was replicated 5 times, making the number of flasks to 20 and number of explants to 100 for each concentration of menthol. The experiment was conducted in the completely randomized design (CRD) fashion. Cultures were incubated and maintained at 25±2° C. and 400-600 lux light intensity with 16-hour photoperiod. The wilting response and lethality in explants was recorded every 24 hours over a period of one week.

[2] = system: regenerated shoots of Mentha arvensis variety Kalka
Description: as §1, §2

[3] = system: regenerated shoots of Mentha arvensis variety Shivalik
Description: as §1, §2

[4] = 100-ppm menthol, twenty-four hours after incubation
[5] = menthol 10 μg ml^−1, 20 shoots tested per replication
[6] = menthol 20 μg ml^−1, 20 shoots tested per replication
[7] = menthol 30 μg ml^−1, 20 shoots tested per replication
[8] = menthol 40 μg ml^−1, 20 shoots tested per replication
[9] = menthol 50 μg ml^−1, 20 shoots tested per replication
[10] = menthol 60 μg ml^−1, 20 shoots tested per replication
[11] = menthol 70 μg ml^−1, 20 shoots tested per replication
[12] = menthol 80 μg ml^−1, 20 shoots tested per replication
[13] = menthol 90 μg ml^−1, 20 shoots tested per replication
[14] = menthol 100 μg ml^−1, 20 shoots tested per replication

Question: `CC1CCC(C(C)C)C(O)C1` (stereo not drawn) [menthol] was tested. Which lethality [1, 4] did it give?
Answer: The lethality was 100%.

Question: And the “Survival after 7 days Number” value ([1]; menthol 10 μg ml^−1)?
Answer: Its value is 20.0 ± 0.00.

Question: What about the “Survival after 24 hours Number” value [1, 5] of the same compound?
Answer: Its value is 20.0 ± 0.00.

Question: What about the “Survival after 7 days Number” value ([1]; menthol 20 μg ml^−1) of the same compound?
Answer: The value was 20.0 ± 0.00.

Question: What about the “Survival after 24 hours Number” value [1, 6] of the same compound?
Answer: Its value is 20.0 ± 0.00.

Question: And the “Survival after 7 days Number” value ([1]; menthol 30 μg ml^−1)?
Answer: Its value is 20.0 ± 0.00.

Question: What about the “Survival after 24 hours Number” value [1, 7] of the same compound?
Answer: Its value is 20.0 ± 0.00.

Question: And the “Survival after 7 days Number” value ([1]; menthol 40 μg ml^−1)?
Answer: The value was 17.6 ± 0.66.

Question: What about the “Survival after 24 hours Number” value [1, 8] of the same compound?
Answer: Its value is 20.0 ± 0.00.

Question: What about the “Survival after 7 days Number” value ([1]; menthol 50 μg ml^−1) of the same compound?
Answer: Its value is 9.0 ± 0.41.

Question: What about the “Survival after 24 hours Number” value [1, 9] of the same compound?
Answer: The value was 17.0 ± 0.91.

Question: What about the “Survival after 7 days Number” value ([1]; menthol 60 μg ml^−1) of the same compound?
Answer: Its value is 2.0 ± 0.41.

Question: And the “Survival after 24 hours Number” value [1, 10]?
Answer: The value was 14.0 ± 0.91.

Question: What about the “Survival after 7 days Number” value ([1]; menthol 70 μg ml^−1) of the same compound?
Answer: Its value is 0.2 ± 0.26.

Question: And the “Survival after 24 hours Number” value [1, 11]?
Answer: Its value is 9.0 ± 0.91.

Question: And the “Survival after 7 days Number” value ([1]; menthol 80 μg ml^−1)?
Answer: The value was 0.0 ± 0.00.

Question: What about the “Survival after 24 hours Number” value [1, 12] of the same compound?
Answer: Its value is 4.0 ± 0.58.

Question: And the “Survival after 7 days Number” value ([1]; menthol 90 μg ml^−1)?
Answer: The value was 0.0 ± 0.00.

Question: What about the “Survival after 24 hours Number” value [1, 13] of the same compound?
Answer: Its value is 2.0 ± 0.40.

Question: What about the “Survival after 7 days Number” value ([1]; menthol 100 μg ml^−1) of the same compound?
Answer: The value was 0.0 ± 0.00.

Question: And the “Survival after 24 hours Number” value [1, 14]?
Answer: The value was 0.0 ± 0.00.

Question: What about the lethality [2, 4] of the same compound?
Answer: Its lethality is 98%.

Question: And the “Survival after 7 days Number” value ([2]; menthol 10 μg ml^−1)?
Answer: The value was 20.0 ± 0.00.

Question: And the “Survival after 24 hours Number” value [2, 5]?
Answer: Its value is 20.0 ± 0.00.

Question: And the “Survival after 7 days Number” value ([2]; menthol 20 μg ml^−1)?
Answer: Its value is 20.0 ± 0.00.

Question: And the “Survival after 24 hours Number” value [2, 6]?
Answer: Its value is 20.0 ± 0.00.

Question: And the “Survival after 7 days Number” value ([2]; menthol 30 μg ml^−1)?
Answer: Its value is 20.0 ± 0.00.

Question: What about the “Survival after 24 hours Number” value [2, 7] of the same compound?
Answer: The value was 20.0 ± 0.00.

Question: What about the “Survival after 7 days Number” value ([2]; menthol 40 μg ml^−1) of the same compound?
Answer: The value was 17.6 ± 0.66.

Question: And the “Survival after 24 hours Number” value [2, 8]?
Answer: Its value is 20.0 ± 0.00.

Question: And the “Survival after 7 days Number” value ([2]; menthol 50 μg ml^−1)?
Answer: Its value is 13.8 ± 0.86.

Question: And the “Survival after 24 hours Number” value [2, 9]?
Answer: The value was 19.4 ± 0.52.

Question: What about the “Survival after 7 days Number” value ([2]; menthol 60 μg ml^−1) of the same compound?
Answer: Its value is 10.0 ± 0.91.

Question: What about the “Survival after 24 hours Number” value [2, 10] of the same compound?
Answer: Its value is 17.0 ± 0.41.

Question: What about the “Survival after 7 days Number” value ([2]; menthol 70 μg ml^−1) of the same compound?
Answer: The value was 4.0 ± 0.81.

Question: And the “Survival after 24 hours Number” value [2, 11]?
Answer: Its value is 11.0 ± 0.58.

Question: And the “Survival after 7 days Number” value ([2]; menthol 80 μg ml^−1)?
Answer: Its value is 0.0 ± 0.00.

Question: What about the “Survival after 24 hours Number” value [2, 12] of the same compound?
Answer: Its value is 6.0 ± 0.82.

Question: What about the “Survival after 7 days Number” value ([2]; menthol 90 μg ml^−1) of the same compound?
Answer: The value was 0.0 ± 0.00.

Question: What about the “Survival after 24 hours Number” value [2, 13] of the same compound?
Answer: Its value is 3.0 ± 0.36.

Question: And the “Survival after 7 days Number” value ([2]; menthol 100 μg ml^−1)?
Answer: Its value is 0.0 ± 0.00.

Question: And the “Survival after 24 hours Number” value [2, 14]?
Answer: Its value is 0.4 ± 0.26.

Question: What about the lethality [3, 4] of the same compound?
Answer: Its lethality is 98%.

Question: And the “Survival after 7 days Number” value ([3]; menthol 10 μg ml^−1)?
Answer: Its value is 20.0 ± 0.00.

Question: What about the “Survival after 24 hours Number” value [3, 5] of the same compound?
Answer: Its value is 20.0 ± 0.00.

Question: And the “Survival after 7 days Number” value ([3]; menthol 20 μg ml^−1)?
Answer: Its value is 20.0 ± 0.00.

Question: And the “Survival after 24 hours Number” value [3, 6]?
Answer: The value was 20.0 ± 0.00.

Question: And the “Survival after 7 days Number” value ([3]; menthol 30 μg ml^−1)?
Answer: Its value is 20.0 ± 0.00.

Question: What about the “Survival after 24 hours Number” value [3, 7] of the same compound?
Answer: Its value is 20.0 ± 0.00.

Question: What about the “Survival after 7 days Number” value ([3]; menthol 40 μg ml^−1) of the same compound?
Answer: Its value is 18.0 ± 0.41.

Question: What about the “Survival after 24 hours Number” value [3, 8] of the same compound?
Answer: Its value is 20.0 ± 0.00.

Question: And the “Survival after 7 days Number” value ([3]; menthol 50 μg ml^−1)?
Answer: Its value is 11.0 ± 0.41.

Question: What about the “Survival after 24 hours Number” value [3, 9] of the same compound?
Answer: Its value is 18.0 ± 0.91.

Question: What about the “Survival after 7 days Number” value ([3]; menthol 60 μg ml^−1) of the same compound?
Answer: Its value is 5.0 ± 0.71.

Question: What about the “Survival after 24 hours Number” value [3, 10] of the same compound?
Answer: Its value is 15.0 ± 0.11.

Question: What about the “Survival after 7 days Number” value ([3]; menthol 70 μg ml^−1) of the same compound?
Answer: The value was 2.0 ± 0.32.

Question: What about the “Survival after 24 hours Number” value [3, 11] of the same compound?
Answer: Its value is 8.0 ± 0.91.

Question: And the “Survival after 7 days Number” value ([3]; menthol 80 μg ml^−1)?
Answer: Its value is 0.0 ± 0.00.

Question: What about the “Survival after 24 hours Number” value [3, 12] of the same compound?
Answer: The value was 4.0 ± 0.41.

Question: And the “Survival after 7 days Number” value ([3]; menthol 90 μg ml^−1)?
Answer: The value was 0.0 ± 0.00.

Question: What about the “Survival after 24 hours Number” value [3, 13] of the same compound?
Answer: Its value is 2.0 ± 0.41.

Question: And the “Survival after 7 days Number” value ([3]; menthol 100 μg ml^−1)?
Answer: The value was 0.0 ± 0.00.

Question: What about the “Survival after 24 hours Number” value [3, 14] of the same compound?
Answer: Its value is 0.4 ± 0.32.
